Test results reported in patent US9963442B2, “Pyridones as herbicides” (E I DU PONT DE NEMOURS AND COMPANY, priority 2014, dated 2018).

What was measured:
Format in all cases: in vivo
Conditions in all cases: scale 0 to 100, 0 is no effect, 100 is complete control
[1] = system: Italian ryegrass (Lolium multiflorum); assay: Test C preemergence
Source text: (§1) Seeds of plant species selected from blackgrass (Alopecurus myosuroides), Italian ryegrass (Lolium multiflorum), winter wheat (Triticum aestivum), galium (catchweed bedstraw, Galium aparine), corn (Zea mays), large (Lg) crabgrass (Digitaria sanguinalis), giant foxtail (Setaria faberii), johnsongrass (Sorghum halepense), lambsquarters (Chenopodium album), morningglory (Ipomoea coccinea), yellow nutsedge (Cyperus esculentus), pigweed (Amaranthus retroflexus), ragweed (common ragweed, Ambrosia elatior), soybean (Glycine max), barnyardgrass (Echinochloa crus-galli), oilseed rape (Brassica napus), waterhemp (common waterhemp, Amaranthus rudis), and velvetleaf (Abutilon theophrasti) were planted into a blend of loam soil and sand and treated preemergence with test chemicals formulated in a non-phytotoxic solvent mixture which included a surfactant. At the same time, plants selected from these crop and weed species and also chickweed (common chickweed, Stellaria media), kochia (Kochia scoparia), and wild oat (Avena fatua), were planted in pots containing Sunshine Redi-Earth® planting medium comprising spaghnum peat moss, vermiculite, starter nutrients and dolomitic limestone and treated with postemergence applications of test chemicals formulated in the same manner. Plants ranged in height from 2 to 18 cm (1- to 4-leaf stage) for postemergence treatments. Treated plants and controls were maintained in a greenhouse for 13 to 15 days, after which time all species were compared to controls and visually evaluated. Plant response ratings, summarized in Table C, are based on a scale of 0 to 100 where 0 is no effect and 100 is complete control. A dash (-) response means no test result.

[2] = system: giant foxtail (Setaria faberii); assay: Test C preemergence
Source text: as §1

[3] = system: johnsongrass (Sorghum halepense); assay: Test C preemergence
Source text: as §1

[4] = system: lambsquarters (Chenopodium album); assay: Test C preemergence
Source text: as §1

[5] = system: pigweed (Amaranthus retroflexus); assay: Test C preemergence
Source text: as §1

[6] = system: ragweed (common ragweed, Ambrosia elatior); assay: Test C preemergence
Source text: as §1

soybean (Glycine max) [7] = assay: Test C preemergence
Source text: as §1

[8] = system: velvetleaf (Abutilon theophrasti); assay: Test C preemergence
Source text: as §1

[9] = system: waterhemp (common waterhemp, Amaranthus rudis); assay: Test C preemergence
Source text: as §1

[10] = system: yellow nutsedge (Cyperus esculentus); assay: Test C preemergence
Source text: as §1

[11] = system: Italian ryegrass (Lolium multiflorum); assay: Test C postemergence
Source text: as §1

[12] = system: galium (catchweed bedstraw, Galium aparine); assay: Test C postemergence
Source text: as §1

[13] = system: giant foxtail (Setaria faberii); assay: Test C postemergence
Source text: as §1

[14] = system: johnsongrass (Sorghum halepense); assay: Test C postemergence
Source text: as §1

kochia (Kochia scoparia) = assay: Test C postemergence
Source text: as §1

[15] = system: lambsquarters (Chenopodium album); assay: Test C postemergence
Source text: as §1

[16] = system: large (Lg) crabgrass (Digitaria sanguinalis); assay: Test C postemergence
Source text: as §1

[17] = system: ragweed (common ragweed, Ambrosia elatior); assay: Test C postemergence
Source text: as §1

soybean (Glycine max) [18] = assay: Test C postemergence
Source text: as §1

[19] = system: velvetleaf (Abutilon theophrasti); assay: Test C postemergence
Source text: as §1

[20] = system: waterhemp (common waterhemp, Amaranthus rudis); assay: Test C postemergence
Source text: as §1

wild oat (Avena fatua) = assay: Test C postemergence
Source text: as §1

[21] = system: winter wheat (Triticum aestivum); assay: Test C postemergence
Source text: as §1

O=c1cccc(Oc2ncc(Cl)cn2)n1-c1ccc(Cl)cc1 [Compound 1, 1-(4-chlorophenyl)-6-[(5-chloro-2-pyrimidinyl)oxy]-2(1H)-pyridinone]
95: Plant response rating, Kochia (kochia (Kochia scoparia); 62 g ai/ha) | Plant response rating, Kochia (kochia (Kochia scoparia); 125 g ai/ha)
75: Plant response rating, Pigweed ([5]; 62 g ai/ha)
15: Plant response rating, Johnsongrass ([3]; 125 g ai/ha) | Plant response rating, Lambsquarters ([15]; 16 g ai/ha) | Plant response rating, Lambsquarters ([15]; 31 g ai/ha) | Plant response rating, Crabgrass, Large ([16]; 31 g ai/ha) | Plant response rating, Crabgrass, Large ([16]; 62 g ai/ha) | Plant response rating, Soybean (soybean (Glycine max) [18]; 16 g ai/ha)
100: Plant response rating, Foxtail, Giant ([2]; 125 g ai/ha) | Plant response rating, Pigweed ([5]; 125 g ai/ha) | Plant response rating, Waterhemp ([9]; 62 g ai/ha) | Plant response rating, Waterhemp ([9]; 125 g ai/ha)
90: Plant response rating, Foxtail, Giant ([2]; 62 g ai/ha) | Plant response rating, Kochia (kochia (Kochia scoparia); 16 g ai/ha) | Plant response rating, Kochia (kochia (Kochia scoparia); 31 g ai/ha) | Plant response rating, Waterhemp ([20]; 125 g ai/ha)
10: Plant response rating, Foxtail, Giant ([2]; 16 g ai/ha) | Plant response rating, Ragweed ([6]; 62 g ai/ha) | Plant response rating, Soybean (soybean (Glycine max) [7]; 31 g ai/ha) | Plant response rating, Soybean (soybean (Glycine max) [7]; 62 g ai/ha) | Plant response rating, Velvetleaf ([8]; 125 g ai/ha) | Plant response rating, Ryegrass, Italian ([11]; 125 g ai/ha) | Plant response rating, Foxtail, Giant ([13]; 31 g ai/ha) | Plant response rating, Foxtail, Giant ([13]; 62 g ai/ha) | Plant response rating, Foxtail, Giant ([13]; 125 g ai/ha) | Plant response rating, Crabgrass, Large ([16]; 16 g ai/ha) | Plant response rating, Ragweed ([17]; 16 g ai/ha) | Plant response rating, Velvetleaf ([19]; 16 g ai/ha) | Plant response rating, Velvetleaf ([19]; 31 g ai/ha) | Plant response rating, Oat, Wild (wild oat (Avena fatua); 125 g ai/ha) | Plant response rating, Wheat ([21]; 125 g ai/ha)
70: Plant response rating, Ragweed ([17]; 31 g ai/ha) | Plant response rating, Soybean (soybean (Glycine max) [18]; 125 g ai/ha) | Plant response rating, Waterhemp ([20]; 62 g ai/ha)
25: Plant response rating, Pigweed ([5]; 16 g ai/ha) | Plant response rating, Velvetleaf ([19]; 125 g ai/ha) | Plant response rating, Waterhemp ([20]; 16 g ai/ha)
55: Plant response rating, Foxtail, Giant ([2]; 31 g ai/ha) | Plant response rating, Lambsquarters ([15]; 125 g ai/ha)
30: Plant response rating, Lambsquarters ([4]; 16 g ai/ha) | Plant response rating, Soybean (soybean (Glycine max) [18]; 62 g ai/ha)
60: Plant response rating, Ryegrass, Italian ([1]; 125 g ai/ha) | Plant response rating, Lambsquarters ([4]; 125 g ai/ha)
85: Plant response rating, Galium ([12]; 125 g ai/ha)
0: Plant response rating, Ryegrass, Italian ([1]; 16 g ai/ha) | Plant response rating, Ryegrass, Italian ([1]; 31 g ai/ha) | Plant response rating, Johnsongrass ([3]; 16 g ai/ha) | Plant response rating, Johnsongrass ([3]; 31 g ai/ha) | Plant response rating, Ragweed ([6]; 16 g ai/ha) | Plant response rating, Ragweed ([6]; 31 g ai/ha) | Plant response rating, Ragweed ([6]; 125 g ai/ha) | Plant response rating, Soybean (soybean (Glycine max) [7]; 16 g ai/ha) | Plant response rating, Velvetleaf ([8]; 16 g ai/ha) | Plant response rating, Velvetleaf ([8]; 31 g ai/ha) | Plant response rating, Nutsedge, Yellow ([10]; 16 g ai/ha) | Plant response rating, Nutsedge, Yellow ([10]; 31 g ai/ha) | Plant response rating, Nutsedge, Yellow ([10]; 62 g ai/ha) | Plant response rating, Johnsongrass ([14]; 16 g ai/ha) | Plant response rating, Wheat ([21]; 16 g ai/ha)
45: Plant response rating, Lambsquarters ([4]; 62 g ai/ha) | Plant response rating, Galium ([12]; 31 g ai/ha) | Plant response rating, Lambsquarters ([15]; 62 g ai/ha)
80: Plant response rating, Galium ([12]; 62 g ai/ha) | Plant response rating, Waterhemp ([20]; 31 g ai/ha)
40: Plant response rating, Galium ([12]; 16 g ai/ha) | Plant response rating, Ragweed ([17]; 125 g ai/ha)
65: Plant response rating, Pigweed ([5]; 31 g ai/ha) | Plant response rating, Waterhemp ([9]; 31 g ai/ha)
5: Plant response rating, Ryegrass, Italian ([1]; 62 g ai/ha) | Plant response rating, Johnsongrass ([3]; 62 g ai/ha) | Plant response rating, Velvetleaf ([8]; 62 g ai/ha) | Plant response rating, Nutsedge, Yellow ([10]; 125 g ai/ha) | Plant response rating, Ryegrass, Italian ([11]; 16 g ai/ha) | Plant response rating, Ryegrass, Italian ([11]; 31 g ai/ha) | Plant response rating, Ryegrass, Italian ([11]; 62 g ai/ha) | Plant response rating, Foxtail, Giant ([13]; 16 g ai/ha) | Plant response rating, Johnsongrass ([14]; 31 g ai/ha) | Plant response rating, Johnsongrass ([14]; 62 g ai/ha) | Plant response rating, Johnsongrass ([14]; 125 g ai/ha) | Plant response rating, Oat, Wild (wild oat (Avena fatua); 16 g ai/ha) | Plant response rating, Oat, Wild (wild oat (Avena fatua); 31 g ai/ha) | Plant response rating, Oat, Wild (wild oat (Avena fatua); 62 g ai/ha) | Plant response rating, Wheat ([21]; 31 g ai/ha) | Plant response rating, Wheat ([21]; 62 g ai/ha)
20: Plant response rating, Lambsquarters ([4]; 31 g ai/ha) | Plant response rating, Waterhemp ([9]; 16 g ai/ha) | Plant response rating, Crabgrass, Large ([16]; 125 g ai/ha) | Plant response rating, Velvetleaf ([19]; 62 g ai/ha)
35: Plant response rating, Ragweed ([17]; 62 g ai/ha) | Plant response rating, Soybean (soybean (Glycine max) [18]; 31 g ai/ha)
